Data reported in the METLIN SMRT retention time set (Domingo-Almenara et al. 2019).

Assay: gradient 5% acetonitrile 3 min, to 50% in 2 min, to 85% in 15 min, held 3 min, 100 µL/min
Conditions: column: Zorbax Extend-C18 2.1 x 50 mm; eluents: water / acetonitrile, 0.1% formic acid
Summary of the method: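 Pure standards were analyzed in mixtures of ~100 molecules using HPLC coupled to a quadrupole time-of-flight mass spectrometer, in both positive and negative ionization mode. Separation used a Zorbax Extend-C18 column (2.1 × 50 mm, 1.8 μm) at 100 μL/min, with water and acetonitrile each containing 0.1% formic acid. Dead and dwell volumes were 40 μL and 900 μL, and data were collected over 3 months. Retention time was read from computationally picked adduct peaks, each inspected manually.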

## CCc1nc2ccc(-c3noc(CNS(=O)(=O)c4ccccc4)n3)cc2n1CC
  RP-LC retention time: 653 s

## CCC(C)(C)NC(=O)CCNc1c(-c2ccc(F)cc2)nc2cnccn12
  RP-LC retention time: 754 s

## CCc1nc2cc(-c3noc(C4(c5ccc(OC)cc5)CC4)n3)ccc2o1
  RP-LC retention time: 690 s

## COc1ccc(C2CCCN2C(=O)c2ccn(C)n2)cc1 (configuration not stated)
  RP-LC retention time: 730 s

## CCc1ccc(CNC(=O)c2nnc(-c3ccc(S(=O)(=O)N(C)C)cc3)o2)cc1
  RP-LC retention time: 959 s

## CCC(C)NC(=O)N1CC(c2nc(CCOCc3ccccc3)no2)C1 (configuration not stated)
  RP-LC retention time: 812 s

## COc1nn(C)cc1C(=O)NCc1n[nH]c(=O)c2ccccc12
  RP-LC retention time: 573 s

## O=C(CN1c2ccc(F)cc2-c2ccccc2S1(=O)=O)Nc1cccc(F)c1
  RP-LC retention time: 982 s

## CN(C)CCSc1ncccc1C(=O)NCc1cccs1
  RP-LC retention time: 583 s

## c1ccc(-c2cc3ccccc3[nH]2)cc1
  RP-LC retention time: 1090 s

## Cc1csc(-c2ccc(N3CCN(C(=O)c4cccc(C#N)c4)CC3)nc2)n1
  RP-LC retention time: 771 s

## Cc1ccc(NC(=O)COc2cc(C)nc(N3CCN(c4ccccc4)CC3)n2)cc1
  RP-LC retention time: 852 s

## Cc1ccc(NC(=O)N2CCc3[nH]cnc3C2c2ccncc2)cc1C (configuration not stated)
  RP-LC retention time: 582 s

## CCCCC(=O)N1CCCN(C2=NS(=O)(=O)C(c3ccc(C)cc3)=C2C)CC1
  RP-LC retention time: 855 s

## CCc1nc2c(c(=O)n1CC(=O)NCc1ccc(C)cc1)CN(Cc1ccccc1)CC2
  RP-LC retention time: 661 s

## CC(C)CCNC(=O)C1(C)Cn2nc(C(=O)NCCc3ccc(Cl)cc3)cc2C(=O)N1C (configuration not stated)
  RP-LC retention time: 845 s

## Cc1cccc2c(C(=O)NC3CC3)c3c(nc12)CCC3
  RP-LC retention time: 606 s

## Cn1nc(C(=O)N2CCCC(C(=O)NC3CC3)C2)c2c1CCN(C(=O)Cc1cccc(F)c1)C2 (configuration not stated)
  RP-LC retention time: 666 s

## NC(=O)OCCCc1ccccc1
  RP-LC retention time: 817 s

## Cc1ccc(NC(=O)Cn2nc3n(c2=O)CCCC3)cc1F
  RP-LC retention time: 677 s

## Cc1ccc(NC(=O)Cn2c(=O)n(-c3ccccc3)c(=O)c3c2cc(C)n3C)cc1C
  RP-LC retention time: 886 s

## Cc1nc2cccnc2n1CC1CCCN(S(=O)(=O)Cc2ccc(Cl)cc2)C1 (configuration not stated)
  RP-LC retention time: 718 s

## CCc1ccc(-c2ccc(SCC(=O)Nc3cc(Cl)ccc3OC)nn2)cc1
  RP-LC retention time: 1180 s

## CC1CCCCN1CCCNC(=O)c1cc(S(=O)(=O)N2CCCC2)ccc1Cl (configuration not stated)
  RP-LC retention time: 643 s

## CCNC(=O)c1sc(-c2ccc(C)cc2)nc1C
  RP-LC retention time: 850 s

## O=C(Nc1cc(-c2ccccn2)no1)c1ccccc1F
  RP-LC retention time: 774 s

## CC(C)Cn1cnc2c(-c3ccc(F)cc3)csc2c1=O
  RP-LC retention time: 1030 s

## COc1ccc(NC(=O)N2CCN(c3cnn4c(C)nnc4c3)CC2)cc1OC
  RP-LC retention time: 577 s

## CCc1ccc(S(=O)(=O)NCCc2csc(-c3cccnc3)n2)s1
  RP-LC retention time: 734 s

## O=C(CCc1cn(-c2ccccc2)nc1-c1ccc2c(c1)OCO2)NCCc1ccco1
  RP-LC retention time: 1100 s

## O=C(Nc1ccc2c(c1)OCCO2)c1cc2nc(N3CCCCC3)sc2s1
  RP-LC retention time: 1010 s

## O=C(Nc1ccc(F)cc1F)N1CCC(N2CCN(Cc3ccc(F)cc3)C2=O)CC1
  RP-LC retention time: 802 s

## COc1ccc(-n2ccc(=O)c(-c3nc(-c4ccccc4F)no3)n2)cc1OC
  RP-LC retention time: 770 s

## COc1cc(C)c(C)cc1S(=O)(=O)Nc1ccc(Cl)c(N2CCCS2(=O)=O)c1
  RP-LC retention time: 1080 s

## COc1ccc(NC(=O)C2CCN(c3nccnc3Sc3ccccc3)CC2)cc1Cl
  RP-LC retention time: 1100 s

## O=C(NCc1ccccn1)C(=O)Nc1ccc2c(c1)OCO2
  RP-LC retention time: 579 s

## CCCN(C)CC1(O)CCC2(CCN(C(=O)C3CCCC3)CC2)CC1
  RP-LC retention time: 584 s

## CC12CC(c3ccccc3O1)C(C(=O)N1CCN(C(=O)c3ccco3)CC1)C(=O)N2 (configuration not stated)
  RP-LC retention time: 624 s

## COCC(=O)N(C1CCOCC1)C1CCN(S(=O)(=O)c2cccc(C)c2)CC1
  RP-LC retention time: 762 s

## Cc1ccc(CN2C(=O)NC3(CCN(C(=O)c4ccsc4)CC3)C2=O)cc1
  RP-LC retention time: 778 s

## O=C(Nc1c(-c2ccccc2)nc2ccccn12)c1cc(Br)ccc1Cl
  RP-LC retention time: 717 s

## Cc1ccc(C)c(NC(=O)C2CCCN2S(C)(=O)=O)c1 (configuration not stated)
  RP-LC retention time: 738 s

## CN1C(=O)c2cc(C(=O)N3CCOCC3)nn2CC1(C)C(=O)NCc1ccc(F)cc1 (configuration not stated)
  RP-LC retention time: 644 s

## O=S(=O)(Cc1ccc(Cl)cc1)c1ccc(N2CCN(c3ccccn3)CC2)nn1
  RP-LC retention time: 654 s

## Cc1noc(C)c1-c1ccc(S(=O)(=O)Nc2cccc(Cl)c2)cc1
  RP-LC retention time: 966 s

## Cc1cc(=O)n(CC(=O)Nc2ccc(F)cc2)c(N)n1
  RP-LC retention time: 592 s

## O=C(NC1CC1)c1nc2ccccn2c1-c1ccc(F)cc1
  RP-LC retention time: 709 s

## Cc1ccc(NC(=O)Cn2c(C)nc3onc(C)c3c2=O)cc1Cl
  RP-LC retention time: 885 s

## CC(=O)Nc1nc(-c2ccc(F)c(F)c2)cs1
  RP-LC retention time: 766 s

## COc1ccc(OC)c(CNC(=O)c2[nH]c(C)c(S(=O)(=O)N3CCCC3)c2C)c1
  RP-LC retention time: 822 s

## CC(=O)Nc1nc(-c2ccc3c(c2)NC(=O)CO3)cs1
  RP-LC retention time: 633 s

## COCCn1cc(CCNC(=O)Nc2cccc(C)c2C)c2cccnc21
  RP-LC retention time: 721 s

## O=C(C1CCN(c2cnc3nccnc3c2)CC1)N1CCN(c2ccc(Cl)cc2)CC1
  RP-LC retention time: 810 s

## CN(Cc1ccco1)S(=O)(=O)c1ccc(C(=O)Nc2cccc(Cl)c2Cl)cc1
  RP-LC retention time: 1010 s

## Cc1ccc(-c2nnc(-c3cccc(S(=O)(=O)NCc4cccs4)c3)o2)cc1
  RP-LC retention time: 1030 s

## O=C(c1ccco1)N1CCN(S(=O)(=O)c2ccc(-c3cc(C(F)(F)F)on3)o2)CC1
  RP-LC retention time: 951 s

## O=C(NCCc1ccncc1)C1CN(S(=O)(=O)c2ccccc2)CC12CCCCC2 (configuration not stated)
  RP-LC retention time: 641 s

## COc1ccc(CNC(=O)c2ccc3c(c2)nc2n3CCN(c3ccccc3)C2=O)cc1
  RP-LC retention time: 732 s

## CS(=O)(=O)NCC1CCN(C(=O)c2ccccc2F)CC1
  RP-LC retention time: 608 s

## O=C(NC1CC1)c1nc(C(=O)N2CCN(c3ccccc3Cl)CC2)cs1
  RP-LC retention time: 881 s

## COc1ccccc1-c1nc(-c2cn(-c3cccc(Cl)c3)nn2)no1
  RP-LC retention time: 1050 s

## O=C(Cc1nc(-c2ccccn2)n[nH]1)Nc1cc(F)ccc1F
  RP-LC retention time: 652 s

## O=C(c1cccc(F)c1)N1CCC2(CC1)N=C(c1ccccc1)NO2
  RP-LC retention time: 739 s

## CCCNC(=O)N(C1CCOCC1)C1CCN(C(=O)c2cnccn2)CC1
  RP-LC retention time: 611 s

## CSc1cccc(NC(=O)Nc2cccc(-c3ccc(N4CCCC4)nn3)c2)c1
  RP-LC retention time: 712 s

## COc1ccc(NC(=O)Cn2nc3cc(C)nc(-c4ccccc4)n3c2=O)c(OC)c1
  RP-LC retention time: 830 s

## CN(CC1CCOC1)C(=O)Nc1ccc(Cl)cc1F (configuration not stated)
  RP-LC retention time: 728 s

## CCOc1ccccc1NC(=O)N1CCN(c2cnn3c(C)nnc3c2)CC1
  RP-LC retention time: 658 s

## CCN1CCN(C(=O)Nc2ccc(C(=O)OC)cc2)c2cccnc21
  RP-LC retention time: 621 s

## CSc1cccc(NC(=O)COc2cccc(-c3nnc4n3CCCC4)c2)c1
  RP-LC retention time: 728 s

## COC(=O)N1CCN(CCNC(=O)NCCCc2ccccc2)CC1
  RP-LC retention time: 559 s

## COc1ccc(CN2CCOC2=O)cc1OC
  RP-LC retention time: 649 s

## C=CCNC(=O)CCc1c(-c2ccc(F)cc2)nc2ccccn12
  RP-LC retention time: 589 s

## O=C(Cc1nnc(-c2ccc3ncccc3c2)o1)NCCC1=CCCCC1
  RP-LC retention time: 759 s

## CCn1c(C2CCN(S(=O)(=O)c3cccc4nsnc34)C2)nc2cccnc21 (configuration not stated)
  RP-LC retention time: 705 s

## Cc1nc(-c2ccc(-c3noc(-c4ccncc4)n3)cc2)cs1
  RP-LC retention time: 1050 s

## O=C(Cn1nc(N2CCSCC2)c2ccccc2c1=O)Nc1ccc(Cl)cc1
  RP-LC retention time: 979 s

## Cc1nn(CC(=O)NC2CCCC2)c(=O)c2cc(-c3ccccc3)nn12
  RP-LC retention time: 852 s

## O=C(CC1CCCC1)N1CCN(c2ncccc2-c2nnc(C3CC3)o2)CC1
  RP-LC retention time: 828 s

## Cn1cc(S(=O)(=O)N2CCCC2)cc1C(=O)N1CCN(c2ccccn2)CC1
  RP-LC retention time: 594 s

## COC(=O)C1=CN(C2CC2)c2cc(N3CCCC(C)C3)c(F)cc2S1(=O)=O (configuration not stated)
  RP-LC retention time: 1010 s

## COc1ccc(NC(=O)Cn2c(C)cc(-c3nnc(-c4ccco4)o3)c2C)cc1F
  RP-LC retention time: 865 s

## CNC(=O)N1CCc2nc(-c3ccccc3)ncc2C1
  RP-LC retention time: 678 s

## Cn1c(=O)n(Cc2cccc(Cl)c2)c(=O)c2cnc(-c3ccncc3)nc21
  RP-LC retention time: 922 s

## Cc1ccc(C)c(NC(=O)N2CCN(c3cc(-c4cccnc4)[nH]n3)CC2)c1
  RP-LC retention time: 632 s

## COCCN1C(=O)Cc2ccccc2C1C(=O)N1CCCCC1 (configuration not stated)
  RP-LC retention time: 725 s

## CCc1cccc(C)c1NC(=O)Cn1c(=O)n(-c2ccc(F)cc2)c(=O)c2c1cc(C)n2C
  RP-LC retention time: 850 s

## CS(=O)(=O)N1CCCN(C(=O)c2ccccc2)CC1
  RP-LC retention time: 638 s

## O=C(Cn1cc(C(=O)c2ccccc2)c(=O)c2cc(F)ccc21)Nc1ccc2c(c1)OCO2
  RP-LC retention time: 836 s

## CCOc1ccccc1-c1nc(Cc2noc(-c3ccncc3)n2)c(C)o1
  RP-LC retention time: 918 s

## CCCNC(=O)C1CCN(c2nc3ccsc3c(=O)n2Cc2ccccc2)CC1
  RP-LC retention time: 756 s

## CCOc1nccnc1NC1CCN(C(=O)c2cccs2)CC1
  RP-LC retention time: 921 s
